Source: the NIST ThermoML archive (doi:10.1021/je200038n)

Tests used:
[1] = wn = mass fraction of the nth substance listed; conditions: 3000 kPa, Liquid; for mass density: Vibrating tube method; for viscosity: Moving piston method
[2] = molar heat capacity at constant pressure; wn = mass fraction of the nth substance listed; conditions: 3000 kPa, Liquid, Flow calorimetry

N#C[S-].[Na+] [sodium thiocyanate] + N
Conditions	mass density [kg/m3]	molar heat capacity at constant pressure [J/K/mol]	viscosity [mPa·s]
[1], 269.4 K, w2 = 0.8921	707.7	–	–
[1], 269.8 K, w2 = 0.8921	–	–	0.27
[1], 270.4 K, w2 = 0.614	896.5	–	–
[1], 270.4 K, w2 = 0.6824	850	–	–
[1], 270.5 K, w2 = 0.4998	965.7	–	–
[1], 270.5 K, w2 = 0.797	772.7	–	–
[1], 270.6 K, w2 = 0.614	–	–	1.41
[1], 270.6 K, w2 = 0.6824	–	–	0.82
[1], 270.8 K, w2 = 0.4998	–	–	3.47
[1], 270.8 K, w2 = 0.797	–	–	0.44
[1], 274.8 K, w2 = 0.614	892.6	–	–
[1], 274.8 K, w2 = 0.797	767.4	–	–
[1], 274.9 K, w2 = 0.614	–	–	1.27
[1], 274.9 K, w2 = 0.6824	848	–	0.77
[1], 275 K, w2 = 0.4998	962.2	–	3.08
[1], 275 K, w2 = 0.797	–	–	0.4
[1], 275.2 K, w2 = 0.8921	699.9	–	–
[1], 275.4 K, w2 = 0.8921	–	–	0.25
[1], 279.3 K, w2 = 0.6824	844	–	–
[1], 279.4 K, w2 = 0.614	888.8	–	1.14
[1], 279.4 K, w2 = 0.6824	–	–	0.7
[1], 279.4 K, w2 = 0.797	761.7	–	0.37
[1], 279.5 K, w2 = 0.4998	959.3	–	2.75
[1], 283.8 K, w2 = 0.6824	839	–	–
[1], 283.9 K, w2 = 0.797	756.4	–	–
[1], 284 K, w2 = 0.614	884.9	–	1.06
[1], 284 K, w2 = 0.6824	–	–	0.65
[1], 284.1 K, w2 = 0.4998	955.9	–	2.43
[1], 284.1 K, w2 = 0.797	–	–	0.35
[1], 284.2 K, w2 = 0.8921	686.6	–	–
[1], 284.3 K, w2 = 0.8921	–	–	0.22
[1], 288.6 K, w2 = 0.614	881.6	–	–
[1], 288.6 K, w2 = 0.6824	834	–	–
[1], 288.6 K, w2 = 0.797	750.7	–	–
[1], 288.7 K, w2 = 0.4998	952.2	–	2.2
[1], 288.7 K, w2 = 0.6824	–	–	0.61
[1], 288.7 K, w2 = 0.797	–	–	0.33
[1], 293.3 K, w2 = 0.614	878.3	–	–
[1], 293.3 K, w2 = 0.6824	831	–	0.57
[1], 293.4 K, w2 = 0.4998	948.2	–	1.95
[1], 293.4 K, w2 = 0.614	–	–	0.89
[1], 293.4 K, w2 = 0.797	745.1	–	0.31
[1], 293.5 K, w2 = 0.8921	674	–	0.2
[1], 298 K, w2 = 0.614	–	–	0.83
[1], 298 K, w2 = 0.6824	828	–	0.52
[1], 298.1 K, w2 = 0.4998	–	–	1.73
[1], 298.1 K, w2 = 0.614	875.8	–	–
[1], 298.2 K, w2 = 0.4998	944.6	–	–
[1], 302.7 K, w2 = 0.797	–	–	0.28
[1], 302.8 K, w2 = 0.614	870	–	0.76
[1], 302.8 K, w2 = 0.6824	–	–	0.49
[1], 302.8 K, w2 = 0.8921	–	–	0.18
[1], 302.9 K, w2 = 0.4998	–	–	1.57
[1], 302.9 K, w2 = 0.6824	821	–	–
[1], 302.9 K, w2 = 0.797	734.7	–	–
[1], 303 K, w2 = 0.4998	941	–	–
[1], 303 K, w2 = 0.8921	660.5	–	–
[1], 307.5 K, w2 = 0.614	–	–	0.71
[1], 307.5 K, w2 = 0.6824	–	–	0.46
[1], 307.5 K, w2 = 0.797	–	–	0.26
[1], 307.6 K, w2 = 0.4998	–	–	1.41
[1], 307.6 K, w2 = 0.614	866.2	–	–
[1], 307.6 K, w2 = 0.6824	817	–	–
[1], 307.6 K, w2 = 0.797	729.5	–	–
[1], 307.7 K, w2 = 0.4998	937.1	–	–
[1], 312.2 K, w2 = 0.6824	–	–	0.43
[1], 312.2 K, w2 = 0.797	–	–	0.24
[1], 312.2 K, w2 = 0.8921	–	–	0.16
[1], 312.3 K, w2 = 0.4998	–	–	1.27
[1], 312.3 K, w2 = 0.614	–	–	0.66
[1], 312.3 K, w2 = 0.6824	811	–	–
[1], 312.4 K, w2 = 0.4998	933.3	–	–
[1], 312.4 K, w2 = 0.614	862.3	–	–
[1], 312.4 K, w2 = 0.797	724.2	–	–
[1], 312.4 K, w2 = 0.8921	648.1	–	–
[1], 316.8 K, w2 = 0.797	–	–	0.23
[1], 317 K, w2 = 0.614	857.4	–	0.62
[1], 317 K, w2 = 0.6824	–	–	0.4
[1], 317.1 K, w2 = 0.4998	–	–	1.15
[1], 317.1 K, w2 = 0.797	718.9	–	–
[1], 317.2 K, w2 = 0.4998	929.3	–	–
[1], 317.2 K, w2 = 0.6824	807	–	–
[1], 321.5 K, w2 = 0.797	–	–	0.22
[1], 321.6 K, w2 = 0.8921	–	–	0.15
[1], 321.7 K, w2 = 0.614	–	–	0.57
[1], 321.7 K, w2 = 0.6824	–	–	0.38
[1], 321.8 K, w2 = 0.4998	–	–	1.06
[1], 321.8 K, w2 = 0.614	852.4	–	–
[1], 321.8 K, w2 = 0.797	713.6	–	–
[1], 321.9 K, w2 = 0.4998	925.5	–	–
[1], 321.9 K, w2 = 0.6824	800.5	–	–
[1], 322 K, w2 = 0.8921	635.4	–	–
[1], 326.4 K, w2 = 0.797	–	–	0.21
[1], 326.5 K, w2 = 0.614	–	–	0.53
[1], 326.5 K, w2 = 0.6824	–	–	0.36
[1], 326.6 K, w2 = 0.4998	–	–	1
[1], 326.6 K, w2 = 0.614	846.9	–	–
[1], 326.6 K, w2 = 0.797	708.4	–	–
[1], 326.7 K, w2 = 0.4998	921.4	–	–
[1], 326.7 K, w2 = 0.6824	795	–	–
[1], 331 K, w2 = 0.8921	–	–	0.13
[1], 331.1 K, w2 = 0.797	–	–	0.2
[1], 331.2 K, w2 = 0.614	–	–	0.51
[1], 331.2 K, w2 = 0.6824	–	–	0.35
[1], 331.4 K, w2 = 0.4998	–	–	0.92
[1], 331.4 K, w2 = 0.614	843.1	–	–
[1], 331.4 K, w2 = 0.6824	792	–	–
[1], 331.4 K, w2 = 0.797	701	–	–
[1], 331.5 K, w2 = 0.4998	917.4	–	–
[1], 335.7 K, w2 = 0.797	–	–	0.19
[1], 336 K, w2 = 0.6824	–	–	0.33
[1], 336.1 K, w2 = 0.614	–	–	0.47
[1], 336.2 K, w2 = 0.614	838.1	–	–
[1], 336.2 K, w2 = 0.797	692.7	–	–
[1], 336.3 K, w2 = 0.4998	913.3	–	0.87
[1], 336.3 K, w2 = 0.6824	783.1	–	–
[1], 340.6 K, w2 = 0.797	–	–	0.18
[1], 340.8 K, w2 = 0.614	–	–	0.46
[1], 340.8 K, w2 = 0.6824	–	–	0.31
[1], 341 K, w2 = 0.797	686.7	–	–
[1], 341.1 K, w2 = 0.4998	–	–	0.82
[1], 341.1 K, w2 = 0.614	832.6	–	–
[1], 341.1 K, w2 = 0.6824	775.2	–	–
[1], 341.2 K, w2 = 0.4998	909.2	–	–
[1], 345.6 K, w2 = 0.614	–	–	0.43
[1], 345.9 K, w2 = 0.4998	–	–	0.77
[1], 346 K, w2 = 0.4998	905.1	–	–
[1], 346 K, w2 = 0.614	826.5	–	–
[1], 350.2 K, w2 = 0.614	–	–	0.4
[1], 350.4 K, w2 = 0.4998	–	–	0.73
[1], 350.9 K, w2 = 0.4998	900.9	–	–
[1], 359.7 K, w2 = 0.4998	–	–	0.65
[1], 369.5 K, w2 = 0.4998	–	–	0.58
[2], 304.17 K, w2 = 0.4992	–	63.48	–
[2], 304.17 K, w2 = 0.5988	–	72.55	–
[2], 304.17 K, w2 = 0.7013	–	76.74	–
[2], 304.17 K, w2 = 0.9	–	81.53	–
[2], 314.14 K, w2 = 0.4992	–	64.61	–
[2], 314.14 K, w2 = 0.5988	–	72.3	–
[2], 314.14 K, w2 = 0.7013	–	77.73	–
[2], 314.14 K, w2 = 0.7961	–	81.14	–
[2], 314.14 K, w2 = 0.9	–	81.93	–
[2], 324.11 K, w2 = 0.4992	–	64.64	–
[2], 324.11 K, w2 = 0.5988	–	72.13	–
[2], 324.11 K, w2 = 0.7013	–	77.86	–
[2], 324.11 K, w2 = 0.7961	–	82.16	–
[2], 324.11 K, w2 = 0.9	–	83.77	–
[2], 334.09 K, w2 = 0.4992	–	65.26	–
[2], 334.09 K, w2 = 0.5988	–	72.48	–
[2], 334.09 K, w2 = 0.7013	–	78.17	–
[2], 334.09 K, w2 = 0.7961	–	82.8	–
[2], 334.09 K, w2 = 0.9	–	85.93	–
[2], 344.07 K, w2 = 0.4992	–	65.94	–
[2], 344.07 K, w2 = 0.5988	–	73.3	–
[2], 344.07 K, w2 = 0.7013	–	79.2	–
[2], 354.06 K, w2 = 0.4992	–	67.29	–
[2], 354.06 K, w2 = 0.5988	–	74.12	–
[2], 364.15 K, w2 = 0.4992	–	70.3	–
